# In article PMC4046051, “Two M-T hook residues greatly improve the antiviral activity and resistance profile of the HIV-1 fusion inhibitor SC29EK” (Retrovirology, 2014):
# Peptide text beside a SMILES is read from it.
# Key:
# Format in all cases: cell-based
# [1] = system: HIV-1NL4-3 pseudovirus; settings: 100 TCID50, TZM-bl cells, 48 h, luciferase, mean ± SD of three independent experiments, SD, read-out: IC50 Entry
# Procedure: (§1) The inhibition of peptides on the HIV-1 entry was determined by single-cycle infection assay as described previously. Briefly, HIV-1 pseudovirus was generated by cotransfecting 293 T cells with an Env-expressing plasmid and a backbone plasmid pSG3^Δenv that encodes Env-defective, luciferase-expressing HIV-1 genome. The supernatants were harvested and filtered 48 h after transfection and 50% tissue culture infectious dose (TCID50) was determined in TZM-bl cells. The peptides were prepared with 3-fold dilutions and mixed with 100 TCID50 viruses and then incubated 1 h at room temperature. The mixture was added to TZM-bl cells (10^4/well) and incubated 48 h at 37°C. The luciferase activity was measured using luciferase assay reagents and a Luminescence Counter (Promega).
# [2] = system: wild-type HIV-1NL4-3; settings: wild-type HIV-1NL4-3, 100 TCID50, TZM-bl cells, two days, luciferase; mean ± SD of three independent experiments; SD; read-out: IC50 Replication
# Procedure: The inhibition of peptides on HIV-1 replication was determined by a molecular cloned wild-type HIV-1NL4–3. In brief, the virus stock was harvested and quantified 48 h post-transfection. 100 TCID50 viruses were used to infect TZM-bl cells in the presence or absence of serially diluted peptides. Two days post-infection, the cells were harvested and lysed in reporter lysis buffer and the luciferase activity was measured as described above.
# [3] = system: molecular clone of HIV-1NL4-3; assay: In vitro selection of HIV-1 resistance in MT-4 cells; settings: 1.5-2 fold escalating concentrations, 22 passages in 4 months
# Procedure: The in vitro selection of HIV-1 resistance to peptide inhibitors was performed as described previously. Briefly, MT-4 cells were seeded at 1 × 10^4 in RPMI 1640 medium containing 10% fetal bovine serum on 12-well plates. The molecular clone of HIV-1NL4–3 was used to infect the cells in the presence or absence of diluted peptide inhibitors (SC29EK, MT-SC29EK, SC22EK and MT-SC22EK). The cells were incubated at 37°C with 5% CO2 until an extensive cytopathic effect was observed. The culture supernatants were harvested and used for next passage on fresh MT-4 cells with 1.5-2 fold increasing concentrations of peptide. Cells and supernatant were harvested at regular time points and stored at -80°C.
# [4] = system: HIV-1 NL4-3 V38M; assay: Inhibition of T20-resistant HIV-1 variants: V38M; settings: mean ± SD of three independent experiments, SD
# Procedure: as §1
# [5] = system: HIV-1 NL4-3 Q40H; assay: Inhibition of T20-resistant HIV-1 variants: Q40H; settings: mean ± SD of three independent experiments, SD
# Procedure: as §1
# [6] = system: HIV-1 NL4-3 N43K; assay: Inhibition of T20-resistant HIV-1 variants: N43K; settings: mean ± SD of three independent experiments, SD
# Procedure: as §1
# [7] = system: HIV-1 NL4-3 I37T/N43K; assay: Inhibition of T20-resistant HIV-1 variants: I37T/N43K; settings: mean ± SD of three independent experiments
# Procedure: as §1
# [8] = system: HIV-1 NL4-3 V38A; assay: Inhibition of T20-resistant HIV-1 variants: V38A; settings: mean ± SD of three independent experiments, SD
# Procedure: as §1
# [9] = system: HIV-1 NL4-3 WT; assay: Inhibition of T20-resistant HIV-1 variants panel: WT; settings: mean ± SD of three independent experiments, SD
# Procedure: as §1
# [10] = system: HIV-1 NL4-3 D36S/V38M; assay: Inhibition of T20-resistant HIV-1 variants: D36S/V38M; settings: mean ± SD of three independent experiments, SD
# Procedure: as §1
# [11] = system: HIV-1 NL4-3 I37T; assay: Inhibition of T20-resistant HIV-1 variants: I37T; settings: mean ± SD of three independent experiments, SD
# Procedure: as §1
molecule,measurement,setting,value
CC[C@H](C)[C@H](NC(=O)[C@H](CCC(=O)O)NC(=O)[C@H](CCCNC(=N)N)NC(=O)[C@H](CCC(=O)O)NC(=O)[C@H](Cc1c[nH]c2ccccc12)NC(=O)[C@H](CCC(=O)O)NC(=O)[C@H](CCSC)NC(=O)[C@H](Cc1c[nH]c2ccccc12)NC(=O)[C@@H](NC(=O)[C@H](CCSC)NC(=O)[C@H](CCC(=O)O)NC(=O)[C@H](CC(N)=O)NC(=O)[C@H](Cc1c[nH]c2ccccc12)NC(=O)[C@H](CCC(=O)O)NC(=O)[C@@H](NC(C)=O)C(C)C)[C@@H](C)O)C(=O)N[C@@H](CCC(=O)O)C(=O)N[C@@H](CC(N)=O)C(=O)N[C@@H](Cc1ccc(O)cc1)C(=O)N[C@H](C(=O)N[C@@H](CCCCN)C(=O)N[C@@H](CC(C)C)C(=O)N[C@H](C(=O)N[C@@H](Cc1ccc(O)cc1)C(=O)N[C@@H](CCCCN)C(=O)N[C@H](C(=O)N[C@@H](CC(C)C)C(=O)N[C@@H](CCC(=O)O)C(=O)N[C@@H](CCC(=O)O)C(=O)N[C@@H](CO)C(=O)N[C@@H](CCC(N)=O)C(=O)N[C@@H](CCC(=O)O)C(=O)N[C@@H](CCC(N)=O)C(N)=O)[C@@H](C)CC)[C@@H](C)CC)[C@@H](C)O [CP32M] (Ac-VEWNEMTWMEWEREIENYTKLIYKILEESQEQ-NH2),IC50,[1],1.8 ± 0.2 nM
same,IC50,[2],1 ± 0.2 nM
CC[C@H](C)[C@H](NC(=O)[C@H](CC(C)C)NC(=O)[C@H](CCC(=O)O)NC(=O)[C@H](CCC(=O)O)NC(=O)[C@@H](NC(=O)[C@H](CCCCN)NC(=O)[C@H](CCCCN)NC(=O)[C@@H](NC(=O)[C@H](Cc1ccc(O)cc1)NC(=O)[C@H](CCC(=O)O)NC(=O)[C@H](CCC(=O)O)NC(=O)[C@@H](NC(=O)[C@H](CCCCN)NC(=O)[C@H](CCCCN)NC(=O)[C@H](CC(=O)O)NC(=O)[C@H](Cc1c[nH]c2ccccc12)NC(=O)[C@H](CCC(=O)O)NC(=O)[C@H](CCC(=O)O)NC(=O)[C@H](Cc1c[nH]c2ccccc12)NC(=O)[C@@H](NC(=O)[C@H](CCSC)NC(C)=O)[C@@H](C)O)[C@@H](C)CC)[C@@H](C)O)[C@@H](C)CC)C(=O)N[C@@H](CCCCN)C(=O)N[C@@H](CCCCN)C(=O)N[C@@H](CO)C(N)=O [MT-SC22EK] (Ac-MTWEEWDKKIEEYTKKIEELIKKS-NH2),peptide concentration reached during in vitro selection of resistant virus,[3],~100 nM
same,IC50,[1],2.1 ± 0.2 nM
same,IC50,[2],1.1 ± 0.1 nM
"CC[C@H](C)[C@H](NC(=O)[C@H](CCC(=O)O)NC(=O)[C@H](CCCNC(=N)N)NC(=O)[C@H](CCC(=O)O)NC(=O)[C@H](Cc1c[nH]c2ccccc12)NC(=O)[C@@H](NC(=O)[C@H](CCC(=O)O)NC(=O)[C@H](Cc1c[nH]c2ccccc12)NC(=O)[C@H](CO)NC(C)=O)[C@@H](C)O)C(=O)N[C@@H](CCC(=O)O)C(=O)N[C@@H](CC(N)=O)C(=O)N[C@@H](Cc1ccc(O)cc1)C(=O)N[C@H](C(=O)N[C@@H](CCCNC(=N)N)C(=O)N[C@@H](CCC(N)=O)C(=O)N[C@H](C(=O)N[C@@H](Cc1ccc(O)cc1)C(=O)N[C@@H](CCCNC(=N)N)C(=O)N[C@H](C(=O)N[C@@H](CC(C)C)C(=O)N[C@@H](CCC(=O)O)C(=O)N[C@@H](CCC(=O)O)C(=O)N[C@@H](CO)C(=O)N[C@@H](CCC(N)=O)C(=O)N[C@@H](CCC(=O)O)C(=O)N[C@@H](CCC(N)=O)C(=O)N[C@@H](CCC(N)=O)C(=O)N[C@@H](CC(=O)O)C(=O)N[C@@H](CCCNC(=N)N)C(=O)N[C@@H](CC(N)=O)C(=O)N[C@@H](CCC(=O)O)C(=O)N[C@@H](CCCNC(=N)N)C(=O)N[C@@H](CC(=O)O)C(=O)N[C@@H](CC(C)C)C(=O)N[C@@H](CC(C)C)C(=O)N[C@@H](CCC(=O)O)C(N)=O)[C@@H](C)CC)[C@@H](C)CC)[C@@H](C)O [SFT, Sifuvirtide] (Ac-SWETWEREIENYTRQIYRILEESQEQQDRNERDLLE-NH2)",IC50,[1],2.6 ± 0.1 nM
same,IC50,[2],1.5 ± 0.1 nM
CC[C@H](C)[C@H](NC(=O)[C@H](C)NC(=O)[C@H](CCCNC(=N)N)NC(=O)[C@H](CC(=O)O)NC(=O)[C@H](Cc1c[nH]c2ccccc12)NC(=O)[C@H](C)NC(=O)[C@H](CCC(=O)O)NC(=O)[C@H](Cc1c[nH]c2ccccc12)NC(=O)[C@@H](NC(=O)[C@@H](NC(C)=O)[C@@H](C)O)[C@@H](C)O)C(=O)N[C@@H](C)C(=O)N[C@@H](CCC(=O)O)C(=O)N[C@@H](Cc1ccc(O)cc1)C(=O)N[C@@H](C)C(=O)N[C@@H](C)C(=O)N[C@@H](CCCNC(=N)N)C(=O)N[C@H](C(=O)N[C@@H](CCC(=O)O)C(=O)N[C@@H](C)C(=O)N[C@@H](CC(C)C)C(=O)N[C@H](C(=O)N[C@@H](CCCNC(=N)N)C(=O)N[C@@H](C)C(=O)N[C@@H](C)C(=O)N[C@@H](CCC(N)=O)C(=O)N[C@@H](CCC(=O)O)C(=O)N[C@@H](CCC(N)=O)C(=O)N[C@@H](CCC(N)=O)C(=O)N[C@@H](CCC(=O)O)C(=O)N[C@@H](CCCCN)C(=O)N[C@@H](CC(N)=O)C(=O)N[C@@H](CCC(=O)O)C(=O)N[C@@H](C)C(=O)N[C@@H](C)C(=O)N[C@@H](CC(C)C)C(=O)N[C@@H](CCCNC(=N)N)C(=O)N[C@@H](CCC(=O)O)C(=O)N[C@@H](CC(C)C)C(N)=O)[C@@H](C)CC)[C@@H](C)CC [T2635],IC50,[1],1.1 ± 0.1 nM
enfuvirtide,IC50,[4],378 ± 41.7 nM
same,IC50,[5],1320 ± 92.3 nM
same,IC50,[6],367 ± 47.4 nM
same,IC50,[7],> 2250 nM
same,IC50,[8],1840 ± 56.1 nM
same,IC50,[2],48.6 ± 1.2 nM
same,IC50,[9],52.1 ± 8.5 nM
same,IC50,[10],203 ± 12.6 nM
same,IC50,[11],552 ± 123 nM
